These results are taken from US8183260B2, “5H-thioeno(3,4-c)pyrrole-4,6-dione derivatives and their use as tumor necrosis factor inhibitors” (Tianjin Hemay Bio-Tech Co., Ltd., priority 2005, dated 2012).

The experiment deals with TNFα released by PBMCs. Nature of the experiment: Inhibition of TNFα release from monocytes (PBMC) stimulated by LPS, ELISA. It counts as cell-based. The note with it: Homo sapiens, LPS 0.1 μg/mL, 20 hr incubation; for IC50: concentration giving 50% TNFα inhibition; for inhibition at 3 µM: test concentration 3.0 μM; for inhibition at 3 µM / inhibition at 100 µM: read-out: Degree of inhibition (%); for inhibition at 100 µM: test concentration 100 μM. How it is done: Cytokine TNFα released by PBMCs in the peripheral blood after […] (LPS) stimulation in vitro was studied. The followings are experimental protocols for studying cytokine TNFα released by PBMCs, which are inhibited by compounds of the invention.
PBMCs were obtained from blood of at least three volunteers after heparin treatment, using gradient extraction. PBMCs were collected and washed three times with a 1640 medium (10% calf serum, 2 mM L-glutamine, […], 50 μg/mL streptomycin, 50 U/mL penicillin), then placed into wells of a 24-well cell culture plate. The concentration was adjusted to 1×10^6 cells/mL with 1640 culture medium. […] The resultant solution was added to the cell culture medium and the culture plate was placed in a CO2 incubator (5% CO2, 90% humidity) for 1 hour. Then, LPS (Sigma) was added and its concentration was adjusted to 0.1 μg/mL (except for the control).
After a 20 hr incubation period, the content of TNFα in supernatant of the above PBMC culture medium was assayed by ELISA kit (America Genzyme Co), using standard method. The measured value of the control well (not treated with active components), and the measured value of the test wells containing the test compounds was used to calculate the TNFα inhibition rate. The concentration of compounds giving a 50% TNFα inhibition (IC50 value) was calculated using nonlinear regression analysis. Each concentration was determined twice and an average value was calculated.
For orientation: ELISA stands for enzyme-linked immunosorbent assay.

The term IC50 denotes the midpoint of a concentration-inhibition curve. A word on the inhibition: it is the percentage by which the read-out fell short of the control.

With `CN1C(=O)CCC(N2C(=O)c3csc(N)c3C2=O)C1=O` (stereo not shown) [Example 31, 1-amino-5-(1-methyl-2,6-dioxopiperidin-3-yl)-5H-thieno(3,4-c)pyrrole-4,6-dione], the IC50 was 350 nM and the inhibition at 3 µM worked out at 71%.

In the case of `CNc1scc2c1C(=O)N(C1CCC(=O)NC1=O)C2=O` (stereo not shown) [Example 22, 1-methylamino-5-(2,6-dioxopiperidin-3-yl)-5H-thieno(3,4-c)pyrrole-4,6-dione], the IC50 stood at 500 nM and the inhibition at 3 µM was 62%.

`CN1C(=O)CCC(N2C(=O)c3cscc3C2=O)C1=O` (stereo not shown) [Example 13, 5-(1-methyl-2,6-dioxopiperidin-3-yl)-5H-thieno(3,4-c)pyrrole-4,6-dione]: the inhibition at 100 µM was 20%.

As for `CC1(N2C(=O)c3csc(N)c3C2=O)CCC(=O)NC1=O` (stereo not shown) [Example 27, 1-amino-5-(3-methyl-2,6-dioxopiperidin-3-yl)-5H-thieno(3,4-c)pyrrole-4,6-dione], the half-maximal inhibitory concentration (IC50) is 50 nM and the inhibition at 3 µM is 84%.

As to `O=C1CCC(N2C(=O)c3csc([N+](=O)[O-])c3C2=O)C(=O)N1` (stereo not shown) [Example 18, 1-nitro-5-(2,6-dioxopiperidin-3-yl)-5H-thieno(3,4-c)pyrrole-4,6-dione], the inhibition at 100 µM came out at 28%.

Regarding `O=C1CCC(N2C(=O)c3ccccc3C2=O)C(=O)N1` (stereo not shown) [Thalidomide, reference compound], the IC50 came out at 183000 nM and the inhibition at 100 µM is 22%.

For the compound `O=C1CCC(N2C(=O)c3cscc3C2=O)C(=O)N1` (stereo not shown) [Example 10, 5-(2,6-dioxopiperidin-3-yl)-5H-thieno(3,4-c)pyrrole-4,6-dione], the inhibition at 100 µM is 32%.

As for `COC(=O)CN1C(=O)CCC(N2C(=O)c3cscc3C2=O)C1=O` (stereo not shown) [Example 15, 5-(1-methoxycarbonylmethyl-2,6-dioxopiperidin-3-yl)-5H-thieno(3,4-c)pyrrole-4,6-dione], the inhibition at 100 µM stood at 18%.

On to `COCCN1C(=O)CCC(N2C(=O)c3cscc3C2=O)C1=O` (stereo not shown) [Example 16, 5-(1-(2-methoxyethyl)-2,6-dioxopiperidin-3-yl)-5H-thieno(3,4-c)pyrrole-4,6-dione], for which the inhibition at 100 µM came out at 28%.

For the compound `Nc1scc2c1C(=O)N(C1CCC(=O)NC1=O)C2=O` (stereo not shown) [Example 19, 1-amino-5-(2,6-dioxopiperidin-3-yl)-5H-thieno(3,4-c)pyrrole-4,6-dione], the IC50 amounted to 6 nM and the inhibition at 3 µM was determined as 95%.

Regarding `CC(=O)Nc1scc2c1C(=O)N(C1CCC(=O)NC1=O)C2=O` (stereo not shown) [Example 24, 1-acetamido-5-(2,6-dioxopiperidin-3-yl)-5H-thieno(3,4-c)pyrrole-4,6-dione], the inhibition at 3 µM worked out at 48%.
